Measurements as given in patent publication US11447504B2, “Macrocyclic chlorine substituted indole derivatives” (Bayer Aktiengesellschaft, priority 2017, dated 2022).
Where a name gives a salt, the structure may show the parent alone. Read-outs that look alike come from different tables or passages of the source.

Key:
[1] = test system: SUDHL5; experiment: Induction of caspase-3/7 activity (Assay 4), SUDHL5; type: cell-based; conditions: SUDHL5 cells
Procedure: (§1) Induction of Caspase-3/7 Activity Upon Treatment of Cells with Selected Compounds
The BH3-domain of MCL-1 sequesters pro-apoptotic proteins, thereby inhibiting apoptosis. In contrast, MCL-1 inhibitors are expected to antagonize this effect leading to an increase in apoptosis, which can be determined by measuring the activity of caspase-3/7.
(§2) The activity of caspase-3/7 was determined in DLBCL (Diffuse large B-cell lymphoma) cell lines (SUDHL5 and SUDHL10) upon treatment with different compounds, using the Caspase-Glo®3/7 reagent from Promega (G8092).
(§3) Rim wells were excluded. The cells were incubated for 3 hours in a humidified incubator at 37° C.
(§4) For the evaluation of the results, the background measured with “medium-only” was subtracted from all other values.

[2] = test system: SUDHL10; experiment: Induction of caspase-3/7 activity (Assay 4), SUDHL10; type: cell-based; conditions: SUDHL10 cells
Procedure: as §1
In contrast, MCL-1 inhibitors are expected to antagonize this effect leading to an increase in apoptosis, which can be determined by measuring the activity of caspase-3/7.
as §2, §3, §4

[3] = test system: MV-4-11; experiment: Antiproliferation assay 7, MV-4-11; type: cell-based; conditions: MV-4-11 cells, CellTiter-Glo, read-out: Antiproli MV-4-11 IC50 median
Procedure: (§5) Assessment of the Anti-Proliferative Effect of Compounds in Different Cell Lines
(§6) The impact of compounds on the proliferation of different cell lines was assessed using the CellTiter-Glo® Luminescent Cell Viability reagent from Promega (G7573).
(§7) In parallel, cells were plated in a reference (day 0) plate for time zero determination.
(§8) Rim wells were excluded. The cells were incubated for 72 hours in a humidified incubator at 37° C. The day 0 plate was measured by adding 30 μL/well of CTG solution (CellTiter-Glo® Luminescent Cell Viability reagent, Promega G7573) to time zero wells in the reference plate followed by a 10 minutes incubation and luminescence reading at 0.1 ms. using the PHERAstar FS microplate reader (BMG Labtech).
(§9) After 72 hours incubation, the treated plates were measured in the same way as the day 0 plate mentioned above.

[4] = test system: SUDHL10; experiment: Induction of cytotoxicity (Assay 6), SUDHL10
Procedure: (§10) Assay 6 Induction of Cytotoxicity Upon Treatment of Cells with Selected Compounds
(§11) Therefore, cytotoxicity assays were run in parallel in SUDHL5 and SUDHL10 cells.
(§12) The different cell lines were plated in culture medium (RPMI 1640 [GIBCO #22400-089]supplemented with 10% Fetal Bovine Serum) at a density of 3,300 cells in 30 μL/well in a sterile, solid black, flat bottom, polystyrene, TC-treated 384-well microplate (Corning #3571) using Multidrop Combi Reagent Dispenser. As a control, medium without cells was also added to the plate. Cells were incubated in a humidified incubator at 37° C. overnight. […] Rim wells were excluded. The cells were incubated for 5 hours in a humidified incubator at 37° C. After this incubation, 30 μL of CellTiter-Glo® Luminescent Cell Viability reagent (Promega, G7573) was added to each well using the Multidrop Combi Reagent Dispenser, followed by 15 minutes incubation on a shaker at room temperature. Finally, luminescence was read at 0.1 ms, with a gain of 3000 using the PHERAstar FS microplate reader (BMG Labtech).

[5] = test system: AMO-1; experiment: Antiproliferation assay 7, AMO-1; type: cell-based; conditions: AMO-1 cells, CellTiter-Glo, read-out: Antiproli AMO-1 IC50 median
Procedure: as §5, §6, §7, §8, §9

[6] = test system: SUDHL5; experiment: Induction of cytotoxicity (Assay 6), SUDHL5
Procedure: as §10, §11, §12

[7] = test system: SUDHL5; experiment: Antiproliferation assay 7, SUDHL5; type: cell-based; conditions: SUDHL5 cells, 72 hours, CellTiter-Glo; read-out: Antiproli SUDHL5 IC50 (median)
Procedure: as §5, §6, §7, §8, §9

[8] = Homo sapiens, SU-DHL-5, 3 h, Caspase-Glo 3/7, read-out: Caspase SUDHL5 EC50 (median)
[9] = Homo sapiens, SU-DHL10, 3 h, Caspase-Glo 3/7, read-out: Caspase SUDHL10 EC50 (median)
[10] = 3 hours, Caspase-Glo 3/7, read-out: Caspase SUDHL5 EC50 (median)
[11] = 3 hours, Caspase-Glo 3/7, read-out: Caspase SUDHL10 EC50 (median)
[12] = read-out: Cytotox SUDHL5 IC50 (median), SUDHL5 cells, 5 hours, CellTiter-Glo
[13] = read-out: Cytotox SUDHL10 IC50 (median), SUDHL10 cells, 5 hours, CellTiter-Glo

EC50 [1, 8] | EC50 [2, 9] | IC50 ([3]; Homo sapiens, MV4-11, 72 h) | EC50 [1, 10] | EC50 [2, 11] | IC50 [7] | SMILES | IC50 ([4]; Homo sapiens, SU-DHL10, 5 h, read-out: Cytotox SUDHL10 IC50 (median), SUDHL10 cells, 5 hours, CellTiter-Glo) | IC50 ([5]; Homo sapiens, AMO1, 72 h) | IC50 ([6]; Homo sapiens, SU-DHL-5, 5 h, read-out: Cytotox SUDHL5 IC50 (median), SUDHL5 cells, 5 hours, CellTiter-Glo) | IC50 ([3]; 72 hours) | IC50 ([5]; 72 hours) | IC50 [6, 12] | IC50 [4, 13]
1.2 µM | 3.7 µM | 2.68 µM | – | – | – | Cc1c2c(nn1C)CN(C)CCCn1c(C(=O)O)c(CCCOc3cccc4ccccc34)c3ccc(Cl)c-2c31 (racemic) [Example 29, (rac)-12-chloro-7,10,11-trimethyl-1-[3-(naphthalen-1-yloxy)propyl]-4,5,6,7,8,10-hexahydropyrazolo[3′,4′:7,8][1,5]diazecino[9,10,1-hi]indole-2-carboxylic Acid] | 3.2 µM | – | – | – | – | – | –
0.67 µM | 5.7 µM | 1.7 µM | – | – | – | CCc1nn(C)c2c1-c1c(Cl)ccc3c(CCCOc4cccc5cc(F)ccc45)c(C(=O)O)n(c13)CCCCOC2 (racemic) [Example 33, (rac)-4-chloro-3-ethyl-7-{3-[(6-fluoronaphthalen-1-yl)oxy]propyl}-1-methyl-1,10,11,12,13,15-hexahydropyrazolo[4′,3′:9,10][1,6]oxazacycloundecino[8,7,6-hi]indole-8-carboxylic Acid] | – | 1.58 µM | 1 µM | – | – | – | –
– | – | – | 4.6 µM | – | 3.3 µM | CCc1c2c(nn1C)COCCCCn1c(C(=O)O)c(CCCOc3cccc4ccccc34)c3ccc(Cl)c-2c31 (single isomer, unassigned; enantiomer 2) [Example 21, 4-chloro-3-ethyl-2-methyl-7-[3-(naphthalen-1-yloxy)propyl]-2,10,11,12,13,15-hexahydropyrazolo[4′,3′:9,10][1,6]oxazacycloundecino[8,7,6-hi]indole-8-carboxylic Acid (Enantiomer 2)] | – | – | – | – | – | 3.7 µM | 11 µM
– | – | – | 7.6 µM | 22 µM | 6.1 µM | CCc1nn(C)c2c1-c1c(Cl)ccc3c(CCCOc4cccc5cc(F)ccc45)c(C(=O)O)n(c13)CCCCOC2 (single isomer, unassigned; enantiomer 2) [Example 35, (−)-4-chloro-3-ethyl-7-{3-[(6-fluoronaphthalen-1-yl)oxy]propyl}-1-methyl-1,10,11,12,13,15-hexahydropyrazolo[4′,3′:9,10][1,6]oxazacycloundecino[8,7,6-hi]indole-8-carboxylic Acid (Enantiomer 2)] | – | – | – | 8.59 µM | 13.3 µM | 6.3 µM | –
– | – | – | 24 µM | 23 µM | 7.1 µM | CCc1c2c(nn1C)N(CCC1CCOCC1)CCCCCn1c(C(=O)O)c(CCCOc3cccc4cc(F)ccc34)c3ccc(Cl)c-2c31 (single isomer, unassigned; enantiomer 2) [Example 82, 4-chloro-3-ethyl-7-{3-[(6-fluoronaphthalen-1-yl)oxy]propyl}-2-methyl-15-[2-(oxan-4-yl)ethyl]-10,11,12,13,14,15-hexahydro-2H-pyrazolo[4′,3′:4,5][1,6]diazacycloundecino[3,2,1-hi]indole-8-carboxylic acid N-ethylethanamine Salt—Enantiomer 2] | – | – | – | – | – | 28 µM | 30 µM
– | – | – | 1.8 µM | 8.3 µM | 4.2 µM | Cc1c2c(nn1C)COCC1CCC1Cn1c(C(=O)O)c(CCCOc3cccc4ccccc34)c3ccc(Cl)c-2c31 (single isomer, unassigned; stereoisomer 2) [Example 64] | – | – | – | – | 10.8 µM | 2.3 µM | 7.3 µM

SMILES | EC50 [1, 8] | EC50 [2, 9] | IC50 ([3]; Homo sapiens, MV4-11, 72 h) | EC50 [1, 10] | EC50 [2, 11] | IC50 [7] | IC50 ([4]; Homo sapiens, SU-DHL10, 5 h, read-out: Cytotox SUDHL10 IC50 (median), SUDHL10 cells, 5 hours, CellTiter-Glo) | IC50 ([5]; Homo sapiens, AMO1, 72 h) | IC50 ([6]; Homo sapiens, SU-DHL-5, 5 h, read-out: Cytotox SUDHL5 IC50 (median), SUDHL5 cells, 5 hours, CellTiter-Glo) | IC50 ([3]; 72 hours) | IC50 ([5]; 72 hours) | IC50 [6, 12] | IC50 [4, 13]
Cc1c2c(nn1C)COCCCCn1c(C(=O)O)c(CCCOc3cccc4cc(F)ccc34)c3ccc(Cl)c-2c31 (single isomer, unassigned; enantiomer 2) [Example 17, (−)-4-chloro-7-{3-[(6-fluoronaphthalen-1-yl)oxy]propyl}-2,3-dimethyl-2,10,11,12,13,15-hexahydropyrazolo[4′,3′:9,10][1,6]oxazacycloundecino[8,7,6-hi]indole-8-carboxylic acid-N-ethylethanamine Salt (Enantiomer 2)] | – | – | – | 3.6 µM | 5.2 µM | 1.5 µM | – | – | – | 6.7 µM | 8.91 µM | 3.3 µM | –
